According to patent publication US20250090537A1, “ANTIVIRAL COMPOUNDS AND METHODS OF MAKING AND USING THE SAME” (Gilead Sciences, Inc., priority 2023, published 2025):

How the values were obtained:
[1] = tested on: RSV strain A2; experiment: RSV Cellomics assay for RSV A2 antiviral activity (EC50-RSV-Hep2-96-Cellomics); type: cell-based; conditions: human respiratory syncytial virus, HEp-2, 72 h; Hep2 cells infected with RSV strain A2, MOI=0.05, 3 days; Example B1
Description: Example B1: RSV Cellomics Assay for RSV A2 Antiviral Activity (EC50-RSV-Hep2-96-Cellomics) 8×10^3 Hep2 cells are seeded into 96 well plates in 100 μL of media (DMEM supplemented with GlutaMAX, 10% FBS and Pen/Strep) and briefly spun at 50×g for 1 minute to attach cells. Cells were further allowed to attach with overnight incubation at 37° C.+5% CO2. The following day, the media was aspirated and 100 μL of fresh DMEM media containing 2% FBS was added. A three-fold dilution series of compounds of interest are then added to the plate using the Tecan D300e dispenser and the plate is normalized to the well with the highest volume of DMSO. The cells are next infected by adding 100 μL of media containing RSV strain A2 at an MOI=0.05 and the plates incubated for 3 days at 37° C.+5% CO2. Following the incubation, the media is removed, and the cells are washed once with 250 μL PBS and fixed with 250 μL ice-cold 100% methanol for 10 minutes at 4° C. The methanol is then removed and the plates air dried for 5 minutes and then washed once with 250 μL PBS to remove any residual methanol. The wells are then blocked 60 µL/well of BlockAid (B10710, Thermo-Fisher) for 1 hour at RT on rocker at which point the blocking buffer is carefully aspirated. Primary antibody against the RSV F protein (MAB 858-1) is then diluted 1:2000 in SuperBlock (37515, Thermo Fisher) and 50 μL of the primary antibody solution is added to each well. The plates are incubated at room temperature for 1 hour with gentle agitation and then washed with 250 μL of PBS-Tween 3 times. A goat anti-mouse AlexaFluor 647 conjugated secondary antibody (Sigma, A21235) is then diluted 1:2000 and Hoescht 33342 (H3570) at 1:1000 in SuperBlock and 50 μL added to the wells for 1 hour at 37° C. After incubation the antibody solution is aspirated, and the wells are then washed with 250 μL of PBS-Tween 3 times. To keep cells from drying out, 100 μL of PBS is added to each well and the plates are sealed with black plate seal. Fluorescence at the 647 nm wavelength is measured using a Cellomics CellInsight CX7 machine. Compound activity is determined as a percentage of the % positive cells (or average intensity) compared to DMSO treated RSV infected well controls following subtraction of uninfected controls. The EC50 values are then calculated using nonlinear regression analysis in GraphPad Prism.

[2] = MT4 CC50 cytotoxicity (CC50-MT4-384); type: cell-based; conditions: human; uninfected MT-4 cells, 4-5 days, Cell-Titer Glo; Example G
Description: Example G. HEp-2 and MT4 CC50
Cytotoxicity of the compounds was determined in uninfected cells using the cell viability reagent in a similar fashion as described before for other cell types (Cihlar et al., ANTIMICROB AGENTS CHEMOTHER. 2008, 52(2):655-65). HEp-2 (1.5×10^3 cells/well) and MT-4 (2×10^3 cells/well) cells were plated in 384-well plates and incubated with the appropriate medium containing 3-fold serially diluted compound ranging from 15 nM to 100,000 nM. Cells were cultured for 4-5 days at 37° C. Following the incubation, the cells were allowed to equilibrate to 25° C., and cell viability was determined by adding Cell-Titer Glo viability reagent. The mixture was incubated for 10 min, and the luminescence signal was quantified using an Envision plate reader. Untreated cell and cells treated at 2 μM puromycin (Sigma, St. Louis, MO) serve as 100% and 0% cell viability control, respectively. The percent of cell viability was calculated for each tested compound concentration relative to the 0% and 100% controls and the CC50 value was determined by non-linear regression as a compound concentration reducing the cell viability by 50%.

Row | Compound | EC50 [1] [µM] | CC50 [2] [µM]
1 | N#C[C@]1(CO)O[C@@H](c2ccc3c(N)ncnn23)[C@H](O)[C@@H]1O [Compound 0, (2R,3S,4R,5S)-5-(4-aminopyrrolo[1,2-f][1,2,4]triazin-7-yl)-3,4-dihydroxy-2-(hydroxymethyl)tetrahydrofuran-2-carbonitrile, reference compound] | 9.75 | 
2 | CCOC(=O)O[C@H]1[C@H](c2ccc3c(N)ncnn23)O[C@](C#N)(COC(C)=O)[C@H]1OC(=O)OCC [Compound 1, ((2R,3S,4S,5S)-5-(4-aminopyrrolo[2,1-f][1,2,4]triazin-7-yl)-2-cyano-3,4-bis((ethoxycarbonyl)oxy)tetrahydrofuran-2-yl)methyl acetate] | 19.2 | > 50
3 | CCOC(=O)O[C@H]1[C@H](c2ccc3c(N)ncnn23)O[C@](C#N)(COC(=O)C(C)C)[C@H]1OC(=O)OCC [Compound 3, ((2R,3S,4S,5S)-5-(4-aminopyrrolo[2,1-f][1,2,4]triazin-7-yl)-2-cyano-3,4-bis((ethoxycarbonyl)oxy)tetrahydrofuran-2-yl)methyl isobutyrate] | 36.6 | > 50
4 | CCOC(=O)O[C@H]1[C@H](c2ccc3c(N)ncnn23)O[C@](C#N)(COC(=O)CC(C)(C)C)[C@H]1OC(=O)OCC [Compound 4, ((2R,3S,4S,5S)-5-(4-aminopyrrolo[2,1-f][1,2,4]triazin-7-yl)-2-cyano-3,4-bis((ethoxycarbonyl)oxy)tetrahydrofuran-2-yl)methyl 3,3-dimethylbutanoate] | 37.5 | > 50
